Paper PMC7765409 (International Journal of Molecular Sciences, 2020)

Tests used:
C/EBPβ gene expression = experiment: RT-qPCR gene expression in TG/FA-treated hiPSC-Hep; assay type: cell-based, human; conditions: 24 h pre-treatment then TG/FA 18 h; relative to TG/FA
Procedure: (§1) To explore the signaling partners triggered or altered by the drugs, we performed gene expression RT-qPCR. The hiPSC-Hep were pre-treated in a 24-well plate with the three compounds shown in Figure 7 for 24 h followed by TG/FA challenge for an additional 18 h and RNA from each treatment well was isolated. The pre-treatment paradigm was chosen to stay consistent with how the original HTS was performed. We analyzed several target gene expression levels in the C/EBP-EP300 pathway including CDK2, CDK4, C/EBPα and C/EBPβ, EP300, and diacylglycerol acyltransferase 2 (DGAT2).
(§2) RNA was isolated from hiPSC-derived hepatocytes using the RNeasy kit (Qiagen, Frederick) and subsequently subjected to DNase digestion (Qiagen). Total RNA was quantified using NanoDrop 8000 (Thermo Scientific). The quality of total RNA was assessed by the Agilent Bioanalyzer Nano chip (Agilent Technologies) and RNA integrity number (RIN) ranged from 9.7 to 10. Reverse transcription was performed using the high capacity cDNA reverse transcription kit (Applied Biosystems, Foster City, CA, USA) according to the manufacturer’s recommendation and the complementary DNA (cDNA) obtained used for real-time quantitative PCR. The reaction mixture (10 μL), containing 1 μL of cDNA template, 0.5 μL each of primer and probe (20×, Thermo Fisher Scientific) mix for the gene of interest plus the reference gene and TaqMan Universal PCR master mix (Applied Biosystems) was added to the opaque white 384-well plates and amplified as follows: after 2 min of initial incubation at 50 °C and 10 min of initial denaturation at 95 °C, 45 cycles at 95 °C for 15 s, 60 °C for 1 min for annealing and 1 sec at 72 °C for final extension were performed. Assays were designed to have primers/probes to span exon–exon junctions (Table S1). Direct detection of PCR products was monitored by measuring the fluorescence produced by the result of TaqMan probe hydrolysis after every cycle. All experiments were carried out in triplicate in a LightCycler 480 thermocycler (Roche Diagnostic). Relative gene expression from qPCR data between groups of samples were assessed using a ∆∆Cq method. To adjust for variations in the cDNA synthesis each gene was normalized to that of hypoxanthine phosphoribosyl transferase 1 (HPRT1] or GAPDH mRNA.

DGAT2 mRNA = experiment: RT-qPCR gene expression in TG/FA-treated hiPSC-Hep; assay type: cell-based, human; conditions: dose-dependent, under condition of hepatic steatosis (TG/FA)
Procedure: as §1, §2

CDK5 = system: CDK5; set-up: method as in AstraZeneca data repository; conditions: median log of IC50/EC50/Ki/Kd annotations, highest value; ref AstraZeneca data repository; cited from earlier work
CDK12 = system: CDK12; set-up: method as in AstraZeneca data repository; conditions: median log of IC50/EC50/Ki/Kd annotations, highest value; ref AstraZeneca data repository; cited from earlier work

Cc1ncc(-c2nc(Nc3ccc(N4CCN(C(=O)CO)CC4)cc3)ncc2F)n1C(C)C [C3]
effect on C/EBPβ gene expression (C/EBPβ gene expression): no effect
DGAT2 mRNA level decreased by (DGAT2 mRNA): 46%

CNC(=O)c1nn(C)c2c1C(C)(C)Cc1cnc(Nc3ccc(N4CCN(C)CC4)cc3)nc1-2 [C16, Milciclib]
pXC50 CDK5 (CDK5): 6.58
pXC50 CDK12 (CDK12): 5.34
